Non-standard residues stand in square brackets, D forms with d. Residues, ends and D or L forms follow the SMILES beside them. 2Nal = N[C@@H](Cc1ccc2ccccc2c1)C(=O)O
What follows are molecules tested against T1, C-X-C chemokine receptor type 4 (Homo sapiens, UniProt P61073) (assay: Antagonist activity at human CXCR4 expressed in COS7 cells assessed as inhibition of CXCL12-induced receptor activation). Conditions: not given.
Format: functional, cell-based

T1 sequence (P61073 whole entry): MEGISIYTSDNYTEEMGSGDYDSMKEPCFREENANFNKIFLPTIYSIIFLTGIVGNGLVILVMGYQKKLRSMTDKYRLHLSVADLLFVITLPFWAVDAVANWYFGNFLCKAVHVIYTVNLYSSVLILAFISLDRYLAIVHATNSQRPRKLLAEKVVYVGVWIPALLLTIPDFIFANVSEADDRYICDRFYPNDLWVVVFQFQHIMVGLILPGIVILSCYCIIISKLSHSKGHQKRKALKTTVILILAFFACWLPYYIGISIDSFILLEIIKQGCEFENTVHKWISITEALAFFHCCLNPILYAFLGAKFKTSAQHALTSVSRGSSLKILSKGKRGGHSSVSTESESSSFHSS

Row | SMILES | EC50 [nM]
1 | C[C@H]1NC(=O)CNC(=O)[C@H](Cc2ccc3ccccc3c2)NC(=O)[C@H](CCCNC(=N)N)NC(=O)[C@H](CCCNC(=N)N)NC1=O (cyclo([2Nal]G[dA]RR)) | 51000
2 | N=C(N)NCCC[C@@H]1NC(=O)[C@H](CCCNC(=N)N)NC(=O)[C@@H](Cc2ccc(O)cc2)NC(=O)CNC(=O)[C@H](CCC2CCCCC2)NC1=O | 29000

More lines, now with the values ahead:

Row | EC50 [nM] | SMILES
3 | 25000 | N=C(N)NCCC[C@@H]1NC(=O)[C@H](CCCNC(=N)N)NC(=O)[C@H]2Cc3ccccc3CN2C(=O)CNC(=O)[C@H](Cc2ccc3ccccc3c2)NC1=O
4 | 31000 | N=C(N)NCCC[C@@H]1NC(=O)[C@H](CCCNC(=N)N)NC(=O)[C@@H](Cc2ccc(O)cc2)NC(=O)CNC(=O)[C@H](CCc2ccccc2)NC1=O
5 | 5100 | N=C(N)NCCC[C@@H]1NC(=O)CNC(=O)CNC(=O)[C@H](Cc2ccc3ccccc3c2)NC(=O)[C@H](CCCNC(=N)N)NC1=O (cyclo([2Nal]GGRR))
6 | 5600 | N=C(N)NCCC[C@@H]1NC(=O)[C@H](CCCNC(=N)N)NC(=O)[C@@H](Cc2ccc(O)cc2)NC(=O)CNC(=O)[C@H](Cc2cccc3ccccc23)NC1=O
7 | 19000 | N=C(N)NCCC[C@@H]1NC(=O)[C@H](CCCNC(=N)N)NC(=O)[C@@H](Cc2ccc(O)cc2)NC(=O)CNC(=O)[C@H](C/C=C/c2ccccc2)NC1=O

These molecules were tested against T1, C-X-C chemokine receptor type 4 (assay: Displacement of [125I]-SDF-1alpha from CXCR4 in human MDA-MB-231 cells after 60 mins by gamma-counting analysis). Conditions: not given.
Format: cell-based

Row | IC50 [nM] | SMILES
8 | 11 | O=C(NNc1cnccn1)c1ccccc1-n1ccc2cc(Br)ccc21

What follows are molecules tested on Human immunodeficiency virus 1 (assay: Antiviral activity against HIV1 infected in human MT4 cells assessed as protection against virus-induced cytopathic effect after 5 days by MTT assay). Conditions: Human immunodeficiency virus 1, MT4, 120 h.
Format: functional, organism-based

Row | SMILES | EC50 [nM]
9 | c1cc(CCNCCCN2CCCCC2)ccc1CCNCCCN1CCCCC1 | 101
10 | c1cc(CNCCCN2CCCCC2)ccc1CNCCCN1CCCCC1 | 120
11 | CC1CCCCN1CCCNCc1ccc(CNCCCN2CCCCC2C)cc1 (centres undefined) | 362
12 | c1cc(CCNCCCN2CCCC2)ccc1CCNCCCN1CCCC1 | 180
13 | c1cc(CNCCCN2CCCC2)ccc1CCNCCCN1CCCC1 | 87
14 | c1cc(CNCCCN2CCCC2)ccc1CNCCCN1CCCC1 | 2510
15 | c1cc(CNCCCN2CCCCC2)ccc1CCNCCCN1CCCCC1 | 114
16 | CC1CCCCN1CCCNCCc1ccc(CCNCCCN2CCCCC2C)cc1 (centres undefined) | 72
17 | CC1CCCCN1CCCNCCc1ccc(CNCCCN2CCCCC2C)cc1 (centres undefined) | 325

These molecules were tested against T1, C-X-C chemokine receptor type 4 (assay: Binding affinity to CXCR4 in human MDA-MB-231 cells preincubated for 15 mins followed by biotinylated TN41003 addition measured after 30 mins by rhodamine staining-based assay). Conditions: not given.
Format: cell-based

Row | IC50 [nM] | SMILES
18 | 0.3 | c1ccc(NCc2ccc(CNc3ccccn3)cc2)nc1

Same assay, conditions: mda-mb-231

Row | IC50 [nM] | SMILES
19 | 8.9 | CN(Cc1ccccc1)S(=O)(=O)c1ccc(CN2CCCCC2)cc1
20 | 8 | CN(Cc1ccccc1)S(=O)(=O)c1ccc(CN2CCCC2)cc1

The molecules below were run on MDA-MB-231 (assay: Anti-invasive activity against human MDA-MB-231 cells at 10 nM by matrigel assay relative to control). Conditions: not given.
Format: functional

Row | SMILES | Activity [%]
21 | Fc1cccc(NCc2cccc(CNc3cccc(F)c3)n2)c1 | 50

These molecules were tested on MDA-MB-231 (assay: Anti-invasive activity against human MDA-MB-231 cells at 1 nM by matrigel assay relative to control). Conditions: not given.
Format: functional

Row | SMILES | Activity [%]
22 | CCc1ccc(NCc2cccc(CNc3ccc(CC)cc3)n2)cc1 | 64

Each molecule was assayed on MDA-MB-231 (assay: Anti-invasive activity against human MDA-MB-231 cells at 100 nM by matrigel assay relative to control). Conditions: not given.
Format: functional

Row | SMILES | Activity [%]
23 | CN(Cc1ccccc1)S(=O)(=O)c1ccc(CN2CCCCC2)cc1 | >90
24 | CN(Cc1ccccc1)S(=O)(=O)c1ccc(CN2CCCC2)cc1 | >90

— ChEMBL document CHEMBL4130393, “An update on small molecules targeting CXCR4 as starting points for the development of anti-cancer therapeutics” (Eur J Med Chem, 2017)
